# Assay results reported in US4923963A, “Bradykinin antagonist peptides” (Nova Technology Limited Partnership, priority 1987, dated 1990).
# Like-named read-outs stand apart in the source and are kept apart here. Square brackets hold non-standard residues; d marks the D form. Peptide text beside a SMILES is read from it. dPhe(4-Cl) = N[C@H](Cc1ccc(Cl)cc1)C(=O)O; dPhe(4-F) = N[C@H](Cc1ccc(F)cc1)C(=O)O; d2Nal = N[C@H](Cc1ccc2ccccc2c1)C(=O)O; Hyp = O=C(O)[C@@H]1C[C@@H](O)CN1; 2Thi = N[C@@H](Cc1cccs1)C(=O)O; d2Thi = N[C@H](Cc1cccs1)C(=O)O
# How the values were obtained:
# isolated rat uterus = format: cell-based; settings: for pA2 /RUT: activity class: not quantitated
# Protocol: (§1) The bradykinin antagonists were assayed on isolated rat uterus in natural or induced estrus and on guinea pig ileum, according to the commonly accepted assay methods for bradykinin and related kinins as described by Trautschold (Handbook of Expt. Pharmacol. Vol 25, Springer Verlag, pp. 53-55, 1970) for inhibition of the myotropic activity of bradykinin. The inhibition potencies, as determined according to the commonly accepted manner described by Schild for antagonists of biologically active compounds (Br. J. Pharmacol. 2:189, 1947), and expressed as pA2 values are determined on isolated rat uterus (RUT) and isolated guinea pig ileum (GPI). In the assays, a dose-response curve is determined for the reference substance bradykinin. The dose of bradykinin which produced a half maximal contraction of tissue is the ED50 dose. An amount of bradykinin equivalent to twice the ED50 dose is administered to the tissue 30 seconds after the start of incubation of the tissue with a dose of antagonist. Doses of antagonist are increased in this protocol until pre-incubation with a dose of antagonist reduces the contraction in response to the double ED50 dose of bradykinin to response of a single ED50 dose of bradykinin. The pA2 value represents the negative logarithm of the molar concentration of antagonist necessary to reduce the response of a double ED50 dose of bradykinin to that of an ED50 dose. One unit of pA2 value represents an order of magnitude change in potency. For comparison, the negative log of the dose of BK, the dose which causes half maximal contraction of the tissues, is commonly known as the pD2 value. The pD2 value for bradykinin is 7.9 on the rat uterus and 7.4 on the guinea pig ileum.
# [1] = test system: isolated guinea pig ileum; format: cell-based; parameters: pA2 /GPI: activity class: scale not given here; settings: isolated guinea pig ileum; for pA2 /GPI: activity class: not quantitated
# Protocol: as §1
# rat blood pressure = assay: effects on blood pressure in the anesthetized rat (RBP), intraaortic and intravenous bolus; format: in vivo; parameters: RBP-IA: activity class / RBP-IV: activity class: scale not given here; settings: rat blood pressure
# Protocol: The in vivo effects of bradykinin antagonists on blood pressure in the anesthetized rat are determined according to the assay described by Roblero, Ryan and Stewart (Res. Commun. Pathol. Pharmacol. 6:207, 1973). The antagonists also produce inhibition of the bradykinin response when injected as a bolus admixture of bradykinin plus antagonist by either the ia or iv route of administration.
# [2] = isolated rat uterus, number of tissues in parentheses
Structure (SMILES),pA2 /GPI: activity class [1],pA2 /RUT (antagonist potency) (isolated rat uterus),pA2 /RUT: activity class (isolated rat uterus; isolated rat uterus),further results
"N=C(N)NCCC[C@H](NC(=O)[C@H](Cc1ccccc1)NC(=O)[C@@H](Cc1ccccc1)NC(=O)[C@H](CO)NC(=O)[C@H](Cc1ccccc1)NC(=O)CNC(=O)[C@@H]1CCCN1C(=O)[C@@H]1CCCN1C(=O)[C@H](N)Cc1ccc(Cl)cc1)C(=O)O [Example 2, CDF-Pro-Pro-Gly-Phe-Ser-DPhe-Phe-Arg] (H-[dPhe(4-Cl)]PPGFS[dF]FR-OH)",0,,,pA2 /RUT (antagonist potency) (isolated rat uterus; [2]): 5.0
"N=C(N)NCCC[C@@H](N)C(=O)N[C@H](Cc1ccc(Cl)cc1)C(=O)N1CCC[C@H]1C(=O)N1CCC[C@H]1C(=O)NCC(=O)N[C@@H](Cc1ccccc1)C(=O)N[C@@H](CO)C(=O)N[C@H](Cc1ccccc1)C(=O)N[C@@H](Cc1ccccc1)C(=O)N[C@@H](CCCNC(=N)N)C(=O)O [Example 4, DArg-CDF-Pro-Pro-Gly-Phe-Ser-DPhe-Phe-Arg] (H-[dR][dPhe(4-Cl)]PPGFS[dF]FR-OH)",0,,,pA2 /RUT (antagonist potency) (isolated rat uterus; [2]): 5.4
"N=C(N)NCCC[C@@H](N)C(=O)N[C@H](Cc1ccc(Cl)cc1)C(=O)N1CCC[C@H]1C(=O)N1C[C@H](O)C[C@H]1C(=O)NCC(=O)N[C@@H](Cc1ccccc1)C(=O)N[C@@H](CO)C(=O)N[C@H](Cc1ccccc1)C(=O)N[C@@H](Cc1ccccc1)C(=O)N[C@@H](CCCNC(=N)N)C(=O)O [Example 5, DArg-CDF-Pro-Hyp-Gly-Phe-Ser-DPhe-Phe-Arg] (H-[dR][dPhe(4-Cl)]P[Hyp]GFS[dF]FR-OH)",0,,,pA2 /RUT (antagonist potency) (isolated rat uterus; [2]): 5.8
"N=C(N)NCCC[C@@H](N)C(=O)N1CCC[C@H]1C(=O)N1C[C@H](O)C[C@H]1C(=O)NCC(=O)N[C@@H](Cc1cccs1)C(=O)N[C@@H](CO)C(=O)N[C@H](Cc1ccccc1)C(=O)N[C@@H](Cc1cccs1)C(=O)N[C@@H](CCCNC(=N)N)C(=O)O [Example 8, DArg-Pro-Hyp-Gly-Thi-Ser-DPhe-Thi-Arg] (H-[dR]P[Hyp]G[2Thi]S[dF][2Thi]R-OH)",,5.4,,pA2 /GPI (antagonist potency) ([1]; number of tissues in parentheses): 5.4
"N=C(N)NCCC[C@@H](N)C(=O)N[C@H](Cc1ccc(F)cc1)C(=O)N1CCC[C@H]1C(=O)N1C[C@H](O)C[C@H]1C(=O)NCC(=O)N[C@@H](Cc1ccccc1)C(=O)N[C@@H](CO)C(=O)N[C@H](Cc1ccccc1)C(=O)N[C@@H](Cc1ccccc1)C(=O)N[C@@H](CCCNC(=N)N)C(=O)O [Example 12, DArg-FDF-Pro-Hyp-Gly-Phe-Ser-DPhe-Phe-Arg] (H-[dR][dPhe(4-F)]P[Hyp]GFS[dF]FR-OH)",0,,,pA2 /RUT (antagonist potency) (isolated rat uterus; [2]): 5.7
"CC[C@@H](C)[C@@H](NC(=O)[C@H](N)CCCNC(=N)N)C(=O)N1CCC[C@H]1C(=O)N1C[C@H](O)C[C@H]1C(=O)NCC(=O)N[C@@H](Cc1ccccc1)C(=O)N[C@@H](CO)C(=O)N[C@H](Cc1ccccc1)C(=O)N[C@@H](Cc1ccccc1)C(=O)N[C@@H](CCCNC(=N)N)C(=O)O [Example 18, DArg-DIle-Pro-Hyp-Gly-Phe-Ser-DPhe-Phe-Arg] (H-[dR][dI]P[Hyp]GFS[dF]FR-OH)",0,,,RBP-IA: activity class (rat blood pressure; intraaortic bolus): 0; RBP-IV: activity class (rat blood pressure; intravenous bolus): 0
"N=C(N)NCCC[C@H](NC(=O)[C@H](Cc1cccs1)NC(=O)[C@@H](Cc1ccccc1)NC(=O)[C@H](CO)NC(=O)[C@H](Cc1cccs1)NC(=O)CNC(=O)[C@@H]1CCCN1C(=O)[C@@H]1CCCN1C(=O)[C@H](N)Cc1ccccc1)C(=O)O [Example 19, DPhe-Pro-Pro-Gly-Thi-Ser-DPhe-Thi-Arg] (H-[dF]PPG[2Thi]S[dF][2Thi]R-OH)",0,,0,
"N=C(N)NCCC[C@H](NC(=O)[C@H](Cc1cccs1)NC(=O)[C@@H](Cc1ccccc1)NC(=O)[C@H](CO)NC(=O)[C@H](Cc1cccs1)NC(=O)CNC(=O)[C@@H]1C[C@@H](O)CN1C(=O)[C@@H]1C[C@@H](O)CN1C(=O)[C@H](N)Cc1ccc2ccccc2c1)C(=O)O [Example 26, DNal-Hyp-Hyp-Gly-Thi-Ser-DPhe-Thi-Arg] (H-[d2Nal][Hyp][Hyp]G[2Thi]S[dF][2Thi]R-OH)",0,,0,
"N=C(N)NCCC[C@@H](N)C(=O)N[C@H](Cc1ccc2ccccc2c1)C(=O)N1C[C@H](O)C[C@H]1C(=O)N1C[C@H](O)C[C@H]1C(=O)NCC(=O)N[C@@H](Cc1cccs1)C(=O)N[C@@H](CO)C(=O)N[C@H](Cc1ccccc1)C(=O)N[C@@H](Cc1cccs1)C(=O)N[C@@H](CCCNC(=N)N)C(=O)O [Example 27, DArg-DNal-Hyp-Hyp-Gly-Thi-Ser-DPhe-Thi-Arg] (H-[dR][d2Nal][Hyp][Hyp]G[2Thi]S[dF][2Thi]R-OH)",0,5.3,,
"N=C(N)NCCC[C@H](NC(=O)[C@H](Cc1cccs1)NC(=O)[C@@H](Cc1ccccc1)NC(=O)[C@H](CO)NC(=O)[C@H](Cc1cccs1)NC(=O)CNC(=O)[C@@H]1C[C@@H](O)CN1C(=O)[C@@H]1C[C@@H](O)CN1C(=O)[C@@H](Cc1ccc2ccccc2c1)NC(=O)[C@H](CCCCN)NC(=O)[C@@H](N)CCCCN)C(=O)O [Example 28, Lys-Lys-DNal-Hyp-Hyp-Gly-Thi-Ser-DPhe-Thi-Arg] (H-KK[d2Nal][Hyp][Hyp]G[2Thi]S[dF][2Thi]R-OH)",0,,0,
"N=C(N)NCCC[C@H](NC(=O)[C@H](Cc1ccccc1)NC(=O)[C@@H](Cc1ccccc1)NC(=O)[C@H](CO)NC(=O)[C@H](Cc1ccccc1)NC(=O)CNC(=O)[C@@H]1CCCN1C(=O)[C@@H]1CCCN1C(=O)[C@H](N)Cc1ccc2ccccc2c1)C(=O)O [Example 29, DNal-Pro-Pro-Gly-Phe-Ser-DPhe-Phe-Arg] (H-[d2Nal]PPGFS[dF]FR-OH)",0,5.4,,
"N=C(N)NCCC[C@@H](N)C(=O)N[C@H](Cc1ccc2ccccc2c1)C(=O)N1CCC[C@H]1C(=O)N1CCC[C@H]1C(=O)NCC(=O)N[C@@H](Cc1ccccc1)C(=O)N[C@@H](CO)C(=O)N[C@H](Cc1ccccc1)C(=O)N[C@@H](Cc1ccccc1)C(=O)N[C@@H](CCCNC(=N)N)C(=O)O [Example 31, DArg-DNal-Pro-Pro-Gly-Phe-Ser-DPhe-Phe-Arg] (H-[dR][d2Nal]PPGFS[dF]FR-OH)",0,5.6,,
"N=C(N)NCCC[C@@H](N)C(=O)N[C@H](Cc1ccc2ccccc2c1)C(=O)N1CCC[C@H]1C(=O)N1C[C@H](O)C[C@H]1C(=O)NCC(=O)N[C@@H](Cc1ccccc1)C(=O)N[C@@H](CO)C(=O)N[C@H](Cc1ccccc1)C(=O)N[C@@H](Cc1ccccc1)C(=O)N[C@@H](CCCNC(=N)N)C(=O)O [Example 32, DArg-DNal-Pro-Hyp-Gly-Phe-Ser-DPhe-Phe-Arg] (H-[dR][d2Nal]P[Hyp]GFS[dF]FR-OH)",0,5.9,,
"N=C(N)NCCC[C@H](NC(=O)[C@H](Cc1ccccc1)NC(=O)[C@@H](Cc1cccs1)NC(=O)[C@H](CO)NC(=O)[C@H](Cc1ccccc1)NC(=O)CNC(=O)[C@@H]1CCCN1C(=O)[C@@H]1CCCN1C(=O)[C@H](N)Cc1ccc2ccccc2c1)C(=O)O [Example 37, DNal-Pro-Pro-Gly-Phe-Ser-DThi-Phe-Arg] (H-[d2Nal]PPGFS[d2Thi]FR-OH)",0,,0,
"N=C(N)NCCC[C@H](NC(=O)[C@H](Cc1ccccc1)NC(=O)[C@@H](Cc1cccs1)NC(=O)[C@H](CO)NC(=O)[C@H](Cc1ccccc1)NC(=O)CNC(=O)[C@@H]1C[C@@H](O)CN1C(=O)[C@@H]1CCCN1C(=O)[C@H](N)Cc1ccc2ccccc2c1)C(=O)O [Example 38, DNal-Pro-Hyp-Gly-Phe-Ser-DThi-Phe-Arg] (H-[d2Nal]P[Hyp]GFS[d2Thi]FR-OH)",0,,0,
"N=C(N)NCCC[C@@H](N)C(=O)N[C@H](Cc1ccc2ccccc2c1)C(=O)N1CCC[C@H]1C(=O)N1C[C@H](O)C[C@H]1C(=O)NCC(=O)N[C@@H](Cc1ccccc1)C(=O)N[C@@H](CO)C(=O)N[C@H](Cc1cccs1)C(=O)N[C@@H](Cc1ccccc1)C(=O)N[C@@H](CCCNC(=N)N)C(=O)O [Example 40, DArg-DNal-Pro-Hyp-Gly-Phe-Ser-DThi-Phe-Arg] (H-[dR][d2Nal]P[Hyp]GFS[d2Thi]FR-OH)",0,5.6,,
